Paper doi:10.1101/2024.11.09.622828v1 (biorxiv, 2024)

Tests used:
[1] = biological target: T1, Porcine pancreatic α-amylase (PPA) (Sus scrofa, UniProt P00690); test: DNS reducing sugar assay, […] nm; type: biochemical
T1 sequence (P00690 16-511): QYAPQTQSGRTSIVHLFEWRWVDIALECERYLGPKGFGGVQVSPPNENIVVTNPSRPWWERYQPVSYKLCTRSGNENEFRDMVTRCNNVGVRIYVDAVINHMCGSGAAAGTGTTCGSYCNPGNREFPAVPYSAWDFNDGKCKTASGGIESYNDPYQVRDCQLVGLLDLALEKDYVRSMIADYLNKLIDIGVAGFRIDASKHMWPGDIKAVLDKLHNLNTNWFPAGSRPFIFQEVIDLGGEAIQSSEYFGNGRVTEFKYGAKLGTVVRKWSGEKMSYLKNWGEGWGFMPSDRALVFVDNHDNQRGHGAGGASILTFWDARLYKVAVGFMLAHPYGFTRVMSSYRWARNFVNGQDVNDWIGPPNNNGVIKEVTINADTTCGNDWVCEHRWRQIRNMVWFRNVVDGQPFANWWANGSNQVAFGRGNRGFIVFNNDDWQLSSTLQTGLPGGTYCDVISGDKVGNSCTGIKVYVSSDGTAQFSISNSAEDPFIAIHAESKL

[2] = biological target: LDH-A (lactate dehydrogenase-A); test: NADH oxidation at […] nm, crude goat liver enzyme; type: biochemical, Capra hircus; conditions: 1.8 mM pyruvate, 5 mM NADH, 50 mM Tris pH 7.6

## O=c1c(O)c(-c2cc(O)c(O)c(O)c2)oc2cc(O)cc(O)c12 [M, Myricetin]
[1]
  IC50: 24 µM

## O=C1C[C@@H](c2ccc(O)c(O)c2)Oc2cc(O)cc(O)c21 [E, Eriodictyol]
[1]
  IC50: 22 µM

## O=c1c(O)c(-c2ccc(O)c(O)c2)oc2cc(O)cc(O)c12 [Q, Quercetin]
[2]
  IC50: 4.16 µM
